Experimental data as given in patent US10208046B2, “Nitrogen-containing heterocyclic compound” (Takeda Pharmaceutical Company Limited, priority 2014, dated 2019).

Target: T1, human M1 receptor (hCHRM1) (Homo sapiens, UniProt P11229)
T1 construct: expressed in transfected cells
T1 sequence (P11229 1-460): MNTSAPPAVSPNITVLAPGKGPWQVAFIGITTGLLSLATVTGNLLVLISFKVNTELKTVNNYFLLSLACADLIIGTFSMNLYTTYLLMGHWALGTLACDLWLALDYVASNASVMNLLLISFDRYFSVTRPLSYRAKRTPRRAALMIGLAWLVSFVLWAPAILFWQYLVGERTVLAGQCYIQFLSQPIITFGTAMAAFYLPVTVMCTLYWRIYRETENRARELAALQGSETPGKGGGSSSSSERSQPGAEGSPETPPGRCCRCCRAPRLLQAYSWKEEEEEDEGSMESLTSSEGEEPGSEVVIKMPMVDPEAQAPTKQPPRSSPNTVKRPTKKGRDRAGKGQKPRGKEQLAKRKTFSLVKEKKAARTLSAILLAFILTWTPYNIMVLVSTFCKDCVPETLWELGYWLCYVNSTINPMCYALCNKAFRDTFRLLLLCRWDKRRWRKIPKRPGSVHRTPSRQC
Test: Measurement of M1 receptor positive allosteric modulator (M1PAM) activity, calcium fluorescence in CHO-K1 cells;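 on EC50: potency reported as IP value in nM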
Assay type: cell-based
Details: for activity (%) at 10 μM: 10 μM test compound with acetylcholine at EC20, 100% = acetylcholine 1 μM, 0% = DMSO; for EC50: inflection point in the concentration-dependent curve, acetylcholine at EC20 (final 0.6-0.8 nM), CHO-K1 cells expressing human M1, Fluo-4, FLIPRtetra, read-out: IP value
Protocol: Measurement of M1 Receptor Positive Allosteric Modulator (M1PAM) Activity
The activity of a test compound in the presence of acetylcholine at EC20 concentration (final concentration 0.6-0.8 nM), which affords an action corresponding to about 20% of the maximum activity, was measured as PAM activity. The method is as follows. CHO-K1 cells stably expressing a human M1 receptor (hCHRM1) were plated on a 384-well black clear bottom plate (BD Falcon) at 5,000 cells/well, and cultured in an incubator at 37° C., 5% CO2 for 1 day. The medium in the cell plate was removed, and assay buffer A containing calcium indicator (Recording medium (DOJINDO LABORATORIES), 0.1% BSA (Wako Pure Chemical Industries, Ltd.), 2.5 μg/mL Fluo-4 AM (DOJINDO LABORATORIES), 0.08% Pluronic F127 (DOJINDO LABORATORIES), 1.25 mM probenecid (DOJINDO LABORATORIES)) was added at 30 μL/well. The cells were left standing in the incubator at 37° C., 5% CO2 for 30 min, and further left standing at room temperature for 30 min. A test compound prepared by diluting with assay buffer B (HBSS (Invitrogen), 20 mM HEPES (Invitrogen), 0.1% BSA) containing 2.4-3.2 nM acetylcholine was added at 10 μL/well, and the fluorescence was measured by FLIPRtetra (Molecular Devices) for 1 min every 1 second. With the definition that the amount of change in the fluorescence on addition of acetylcholine (final concentration 1 μM) is 100% and that on addition of DMSO instead of a test compound is 0%, the activity (%) of the test compound was calculated, and the inflection point in the concentration-dependent curve of the test compound was calculated as IP values.

Row | SMILES | activity (%) at 10 μM [%] | EC50 [nM]
1 | CCC(F)(F)COc1nccc2c1C(=O)N(Cc1ccc(-c3cnn(CC(F)(F)F)c3)cc1F)C2 [Example 62, 4-(2,2-difluorobutoxy)-2-(2-fluoro-4-(1-(2,2,2-trifluoroethyl)-1H-pyrazol-4-yl)benzyl)-1,2-dihydro-3H-pyrrolo[3,4-c]pyridin-3-one] | 91 | 40
2 | CCC(F)(F)COc1nccc2c1C(=O)N(Cc1ccc(-c3cnn(C(F)F)c3)cc1)C2 [Example 63, 4-(2,2-difluorobutoxy)-2-(4-(1-(difluoromethyl)-1H-pyrazol-4-yl)benzyl)-1,2-dihydro-3H-pyrrolo[3,4-c]pyridin-3-one] | 91 | 96
3 | O=C1c2c(ccnc2OCC(F)F)CN1Cc1ccc(-c2cnn(CC(F)(F)F)c2)cc1 [Example 65, 4-(2,2-difluoroethoxy)-2-(4-(1-(2,2,2-trifluoroethyl)-1H-pyrazol-4-yl)benzyl)-1,2-dihydro-3H-pyrrolo[3,4-c]pyridin-3-one] | 106 | 91
4 | CCn1cc(-c2ccc(CN3Cc4ccnc(OCC(F)F)c4C3=O)cc2)cn1 [Example 66, 4-(2,2-difluoroethoxy)-2-(4-(1-ethyl-1H-pyrazol-4-yl)benzyl)-1,2-dihydro-3H-pyrrolo[3,4-c]pyridin-3-one] | 105 | 66
5 | CCn1cc(-c2ccc(CN3Cc4ncnc(OCC(F)(F)CC)c4C3=O)cc2)cn1 [Example 68, 4-(2,2-difluorobutoxy)-6-(4-(1-ethyl-1H-pyrazol-4-yl)benzyl)-6,7-dihydro-5H-pyrrolo[3,4-d]pyrimidin-5-one] | 97 | 7.1
6 | CCC(F)(F)COc1ncnc2c1C(=O)N(Cc1ccc(-c3cnn(CC(F)(F)F)c3)cc1)C2 [Example 69, 4-(2,2-difluorobutoxy)-(4-(1-(2,2,2-trifluoroethyl)-1H-pyrazol-4-yl)benzyl)-6,7-dihydro-5H-pyrrolo[3,4-d]pyrimidin-5-one] | 88 | 9.6
7 | CCC(F)(F)COc1nccc2c1C(=O)N(Cc1ccc(-c3cn[nH]c3)cc1)C2 [Example 72, 4-(2,2-difluorobutoxy)-2-(4-(1H-pyrazol-4-yl)benzyl)-1,2-dihydro-3H-pyrrolo[3,4-c]pyridin-3-one] | 90 | 59
8 | CCC(F)(F)COc1nccc2c1C(=O)N(Cc1ccc(-c3cnn(CC(F)(F)F)c3)cc1)C2 [Example 73, 4-(2,2-difluorobutoxy)-2-(4-(1-(2,2,2-trifluoroethyl)-1H-pyrazol-4-yl)benzyl)-1,2-dihydro-3H-pyrrolo[3,4-c]pyridin-3-one] | 94 | 50
9 | CCC(F)(F)COc1ncnc2c1C(=O)N(Cc1ccc(-c3cn(C)nc3C)cc1F)C2 [Example 74, 4-(2,2-difluorobutoxy)-6-(4-(1,3-dimethyl-1H-pyrazol-4-yl)-2-fluorobenzyl)-6,7-dihydro-5H-pyrrolo[3,4-d]pyrimidin-5-one] | 101 | 8.7
10 | CCC(F)(F)COc1ncnc2c1C(=O)N(Cc1ccc(-c3cnn(C)c3)cc1)C2 [Example 75, 4-(2,2-difluorobutoxy)-6-(4-(1-methyl-1H-pyrazol-4-yl)benzyl)-6,7-dihydro-5H-pyrrolo[3,4-d]pyrimidin-5-one] | 98 | 13
11 | CCC(F)(F)COc1nccc2c1C(=O)N(Cc1ccc(-c3cnn(CC(F)F)c3)cc1)C2 [Example 76, 4-(2,2-difluorobutoxy)-2-(4-(1-(2,2-difluoroethyl)-1H-pyrazol-4-yl)benzyl)-1,2-dihydro-3H-pyrrolo[3,4-c]pyridin-3-one] | 94 | 45
12 | CCn1cc(-c2ccc(CN3Cc4ccnc(OCC(F)(F)CC)c4C3=O)cc2)cn1 [Example 77, 4-(2,2-difluorobutoxy)-2-(4-(1-ethyl-1H-pyrazol-4-yl)benzyl)-1,2-dihydro-3H-pyrrolo[3,4-c]pyridin-3-one] | 99 | 68
13 | Cn1cc(-c2ccc(CN3Cc4ncnc(OCC(C)(F)F)c4C3=O)cc2)cn1 [Example 78, 4-(2,2-difluoropropoxy)-6-(4-(1-methyl-1H-pyrazol-4-yl)benzyl)-6,7-dihydro-5H-pyrrolo[3,4-d]pyrimidin-5-one] | 95 | 19
14 | Cn1cc(-c2ccc(CN3Cc4ccnc(OCC(C)(C)F)c4C3=O)c(F)c2)cn1 [Example 81, 4-(2-fluoro-2-methylpropoxy)-2-(2-fluoro-4-(1-methyl-1H-pyrazol-4-yl)benzyl)-1,2-dihydro-3H-pyrrolo[3,4-c]pyridin-3-one] | 88 | 32
15 | Cc1nn(C)cc1-c1ccc(CN2Cc3ccnc(OCC(C)(C)F)c3C2=O)c(F)c1 [Example 82, 2-(4-(1,3-dimethyl-1H-pyrazol-4-yl)-2-fluorobenzyl)-4-(2-fluoro-2-methylpropoxy)-1,2-dihydro-3H-pyrrolo[3,4-c]pyridin-3-one] | 95 | 17
16 | CCn1cc(-c2ccc(CN3Cc4ccnc(OCC(C)(F)F)c4C3=O)cc2)cn1 [Example 84, 4-(2,2-difluoropropoxy)-2-(4-(1-ethyl-1H-pyrazol-4-yl)benzyl)-1,2-dihydro-3H-pyrrolo[3,4-c]pyridin-3-one] | 96 | 72
17 | Cn1cc(-c2ccc(CN3Cc4ccnc(OCC(C)(F)F)c4C3=O)c(F)c2)cn1 [Example 86, 4-(2,2-difluoropropoxy)-2-(2-fluoro-4-(1-methyl-1H-pyrazol-4-yl)benzyl)-1,2-dihydro-3H-pyrrolo[3,4-c]pyridin-3-one] | 91 | 21
18 | Cn1cc(-c2ccc(CN3Cc4ccnc(OCC(F)(F)F)c4C3=O)c(F)c2)cn1 [Example 87, 2-(2-fluoro-4-(1-methyl-1H-pyrazol-4-yl)benzyl)-4-(2,2,2-trifluoroethoxy)-1,2-dihydro-3H-pyrrolo[3,4-c]pyridin-3-one] | 101 | 32
19 | Cc1nn(C)cc1-c1ccc(CN2Cc3ccnc(OCC(F)(F)F)c3C2=O)c(F)c1 [Example 88, 2-(4-(1,3-dimethyl-1H-pyrazol-4-yl)-2-fluorobenzyl)-4-(2,2,2-trifluoroethoxy)-1,2-dihydro-3H-pyrrolo[3,4-c]pyridin-3-one] | 101 | 74
20 | CCC(F)(F)COc1nccc2c1C(=O)N(Cc1ccc(-c3cnn(C)c3)cc1F)C2 [Example 92, 4-(2,2-difluorobutoxy)-2-(2-fluoro-4-(1-methyl-1H-pyrazol-4-yl)benzyl)-1,2-dihydro-3H-pyrrolo[3,4-c]pyridin-3-one] | 94 | 15
21 | CCC(F)(F)COc1nccc2c1C(=O)N(Cc1ccc(-c3ccn(C)n3)cc1F)C2 [Example 97, 4-(2,2-difluorobutoxy)-2-(2-fluoro-4-(1-methyl-1H-pyrazol-3-yl)benzyl)-1,2-dihydro-3H-pyrrolo[3,4-c]pyridin-3-one] | 104 | 77
22 | Cn1cc(-c2ccc(CN3Cc4ncnc(OCC(F)(F)F)c4C3=O)cc2)nn1 [Example 104, 6-(4-(1-methyl-1H-1,2,3-triazol-4-yl)benzyl)-4-(2,2,2-trifluoroethoxy)-6,7-dihydro-5H-pyrrolo[3,4-d]pyrimidin-5-one] | 95 | 61
